Assay results as given in US20090036417A1, “COCHLEATES WITHOUT METAL CATIONS AS BRIDGING AGENTS” (priority 2002, published 2009).

Assays:
[1] = Loading capacity of cochleates for molecules as bridging agents (UV absorption / HPLC); assay type: physicochemical; details: with the lipid amount of column Lipids (mg): 5 mg for TAPS, 38.11 mg for Tobramycine
Protocol: Loading capacities of the new cochelates and nano-cochleates for TAS and tobramycin were determined. For TAS, known amounts of cochleates or nano-cochleates were first dissolved with chloroform, then added with water (pH=2), followed by strong shaking. The water phase was separated hereafter, and the same procedure was repeated two more times. The water phases collected three times were combined. The concentration of the extract was determined by UV absorption at 380 nm. […] The loading amount was determined based on the decreased concentration in the supernatant after cochleate formation. For mobile phase, 2.0 g of tris (hydroxymethyl) aminomethan was first dissolved with 800 ml of water, followed by addition of 20 ml of 1N H2SO4 and acetanitrile to a total volume of 2000 ml. For detectability, a solution of 2,4-dinitrofluourobene (10 mg/ml in alcohol) was prepared within 5 days prior to use and refrigerated. A water solution of tris (hydroxymethyl) aminomethane (15 mg/ml) was also prepared as a stock solution. Within 4 hours of analysis, this stock solution, 40 ml, was diluted with dimethyl sulfoxide (DMSO) to 200 ml. […] For the supernatant (the sample to be measured), 1 ml of 5.5 mg/ml of tobramycin solution was added into a liposome suspension with a lipid-to-drug ratio of 1:5. […]

E. Coli cell line, DH5α = assay: Antibiotic activity of tobramycin in solution, cochleates and nano-cochleates (colony counting); assay type: cell-based; details: 0.5 μg/ml, 37° C., 24 hrs
Protocol: FIG. 9. Antibiotic activity of tobramycin formulated in solution, cochleates and nano-cochleates. The drug of various doses were added to E. Coli prior to incubation at 37° C., followed by counting of the colonies. Tobramycin was selected as a model drug to examine the capability of cochelates and nano-cochleates to deliver hydrophilic drugs across cell membranes because the antibiotic function of tobramycin relies on its binding to ribosomes inside of cells. In other words, tobramycin's antibiotic activity reflects internalization of the drug into the cells. For this purpose, tobramycin-loaded cochleates and nano-cochleates prepared as in Example 2 were incubated with E. Coli at various doses. As a control, a tobramycin solution was also incubated with E. Coli under identical conditions. Experimentally, one drop of E. Coli cell line, DH5α, was added to 2 ml LB Broth solution and incubated at 37° C. for 24 hrs to prepare 1:10 DH5α culture solution. Then, 5 ul of the DH5α culture solution was diluted to 2 ml and tobramycin was added in the form of cochleates and nano-cochleates at the final concentrations of 0, 0.5, 1.0, 2.5, and 5.0 μg/ml, respectively. The tobramycin-added cell cultures were incubated at 37° C., with shaking at 200 rpm, for 24 hrs. […]

- Drug (mg) loaded in cochleates [1]: 5.5 mg
Compound: NC[C@H]1O[C@H](O[C@H]2[C@H](O)[C@@H](O[C@H]3O[C@H](CO)[C@@H](O)[C@H](N)[C@H]3O)[C@H](N)C[C@@H]2N)[C@H](N)C[C@@H]1O [Tobramycine, tobramycin]
- antibiotic activity of drug solution relative to large cochleates (E. Coli cell line, DH5α): 75 times
- antibiotic activity of drug solution relative to nano-cochleates (E. Coli cell line, DH5α): slightly higher
